Experimental data as given in ChEMBL document CHEMBL1201862, “PubChem BioAssay data set” (2004).
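Tested at 5 concentrations; 48 h exposure; 96-well plates; endpoints linearly interpolated, else capped at highest concentration. The concentration for 50% growth inhibition is given as GI50.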 Activity calls are given as the source filed them. Rule as the data show it: active = GI50 up to about 1.1 µM and inactive = higher.

Key:
Assay in all cases: inhibition of tumour cell growth, NCI panel, 48 h
HCC 2998 = test system: HCC 2998
U-251 = test system: U-251
HT-29 = test system: HT-29
SF-295 = test system: SF-295
PC-3 = test system: PC-3
SF-268 = test system: SF-268
OVCAR-8 = test system: OVCAR-8
SK-MEL-5 = test system: SK-MEL-5
MDA-MB-231 = test system: MDA-MB-231
KM12 = test system: KM12
M14 = test system: M14
HOP-92 = test system: HOP-92
NCI-H23 = test system: NCI-H23
SNB-19 = test system: SNB-19
EKVX = test system: EKVX
DU-145 = test system: DU-145
RXF 393 = test system: RXF 393
HCT-15 = test system: HCT-15
T47D = test system: T47D
SK-MEL-28 = test system: SK-MEL-28
786-0 = test system: 786-0
SW-620 = test system: SW-620
RXF 631 = test system: RXF 631
OVCAR-5 = test system: OVCAR-5
SN12C = test system: SN12C
SK-MEL-2 = test system: SK-MEL-2
MOLT-4 = test system: MOLT-4
A498 = test system: A498
SNB-75 = test system: SNB-75
ACHN = test system: ACHN
UACC-257 = test system: UACC-257
LXFL 529 = test system: LXFL 529
OVCAR-4 = test system: OVCAR-4
Hs-578T = test system: Hs-578T
CCRF-CEM = test system: CCRF-CEM
CAKI-1 = test system: CAKI-1
KM-20L2 = test system: KM-20L2
SNB-78 = test system: SNB-78
COLO 205 = test system: COLO 205
MCF7 = test system: MCF7
NCI-H460 = test system: NCI-H460
UACC-62 = test system: UACC-62
TK-10 = test system: TK-10
A549 = test system: A549
NCI-H226 = test system: NCI-H226
DMS-273 = test system: DMS-273
HCT-116 = test system: HCT-116
NCI/ADR-RES = test system: NCI/ADR-RES
SK-OV-3 = test system: SK-OV-3
BT-549 = test system: BT-549
MDA-N = test system: MDA-N
LOX IMVI = test system: LOX IMVI
UO-31 = test system: UO-31
OVCAR-3 = test system: OVCAR-3
NCI-H522 = test system: NCI-H522
MDA-MB-435 = test system: MDA-MB-435
SF-539 = test system: SF-539
Malme-3M = test system: Malme-3M
HOP-62 = test system: HOP-62
M19-MEL = test system: M19-MEL
HOP-18 = test system: HOP-18
DLD-1 = test system: DLD-1
XF498 = test system: XF498
HL-60 = test system: HL-60
SR = test system: SR
IGROV-1 = test system: IGROV-1
RPMI-8226 = test system: RPMI-8226
DMS-114 = test system: DMS-114
K562 = test system: K562

Measured: GI50

CCN(CC)CCC(=O)O[C@H]1CC[C@H](CC(C)[C@H]2CC(=O)C(C)C=C(C)[C@H](OC(=O)CCN(CC)CC)C(OC)C(=O)[C@@H](C)CC(C)/C=C/C=C/C=C(C)C(OC)CC3CC[C@H](C)[C@](O)(O3)C(=O)C(=O)N3CCCCC3C(=O)O2)CC1OC (stereo partly specified)
active: HCC 2998 267 nM | U-251 88.3 nM | HT-29 210 nM | SF-295 21.8 nM | PC-3 < 19.5 nM | SF-268 348 nM | OVCAR-8 36.2 nM | SK-MEL-5 173 nM | MDA-MB-231 228 nM | KM12 443 nM | M14 350 nM | HOP-92 34.8 nM | NCI-H23 161 nM | SNB-19 57.1 nM | EKVX 25 nM | DU-145 179 nM | RXF 393 11 nM | T47D 14.4 nM | SK-MEL-28 28.4 nM | 786-0 19.7 nM | SW-620 266 nM | RXF 631 406 nM | SN12C 84.7 nM | SK-MEL-2 21.4 nM | MOLT-4 18.5 nM | A498 16.1 nM | SNB-75 17.9 nM | ACHN 348 nM | LXFL 529 < 10 nM | OVCAR-4 < 13.2 nM | Hs-578T 34.5 nM | CCRF-CEM < 11.9 nM | CAKI-1 108 nM | SNB-78 < 10 nM | COLO 205 906 nM | MCF7 < 26 nM | NCI-H460 157 nM | UACC-62 44.8 nM | TK-10 627 nM | A549 251 nM | NCI-H226 20.9 nM | DMS-273 361 nM | HCT-116 865 nM | NCI/ADR-RES 697 nM | SK-OV-3 31.4 nM | BT-549 < 10 nM | MDA-N 294 nM | LOX IMVI 22.2 nM | UO-31 < 10 nM | OVCAR-3 202 nM | NCI-H522 27.6 nM | MDA-MB-435 264 nM | SF-539 18.5 nM | Malme-3M < 10.8 nM | HOP-62 < 10 nM
inactive: OVCAR-5 1310 nM | UACC-257 1320 nM | KM-20L2 1600 nM
137 nM: HCT-15

CN(C)CC1CCC(=C2CCCC2)C1=O (stereo unspecified)
active: RPMI-8226 859 nM
5650 nM: HCT-15
inactive: HCC 2998 18200 nM | M19-MEL 16800 nM | U-251 > 10000 nM | HT-29 12500 nM | SF-295 > 100000 nM | SF-268 12400 nM | OVCAR-8 20000 nM | SK-MEL-5 17900 nM | HOP-18 16700 nM | DLD-1 2820 nM | XF498 6840 nM | KM12 10900 nM | M14 8300 nM | HOP-92 5000 nM | HL-60 3510 nM | NCI-H23 20000 nM | SNB-19 > 63700 nM | EKVX 18600 nM | RXF 393 10500 nM | SR 4470 nM | SK-MEL-28 14400 nM | 786-0 7520 nM | OVCAR-5 17000 nM | IGROV-1 17600 nM | SN12C 10700 nM | SK-MEL-2 18400 nM | MOLT-4 2760 nM | A498 18700 nM | SNB-75 16200 nM | ACHN 8180 nM | UACC-257 17400 nM | LXFL 529 3240 nM | OVCAR-4 16700 nM | CCRF-CEM 3030 nM | CAKI-1 > 100000 nM | KM-20L2 18700 nM | SNB-78 12600 nM | COLO 205 14900 nM | DMS-114 8810 nM | NCI-H460 21700 nM | UACC-62 17300 nM | TK-10 11500 nM | A549 20500 nM | NCI-H226 17900 nM | DMS-273 18300 nM | K562 2860 nM | HCT-116 13600 nM | SK-OV-3 > 100000 nM | LOX IMVI 16600 nM | UO-31 18300 nM | OVCAR-3 13500 nM | NCI-H522 1710 nM | SF-539 20000 nM | Malme-3M 5620 nM | HOP-62 14300 nM
